Assay results as given in article PMC9356275, “A quantitative high-throughput screen identifies compounds that lower expression of the SCA2-and ALS-associated gene ATXN2” (The Journal of Biological Chemistry, 2022).

What was measured:
ATXN2 protein = assay: Cerebellar ATXN2 protein by Western blotting in BAC ATXN2-Q22 mice; assay type: in vivo, mouse
Description: Figure 5 Effect of HSP90 inhibitors on ATXN2 cerebellar expression in vivo in BAC ATXN2-Q22 mice. Inhibition of ATXN2 expression by 17-DMAG (A) and HSP990 (B) versus vehicle controls. Mouse ID numbers are shown above the lanes. Western blot analysis showing upregulation of HSP70 expression following 17-DMAG treatment, which indicates successful HSP90 target engagement. The human transgenic ATXN2 protein is indicated as ATXN2-Q22 and the endogenous mouse protein as mATXN2. Values shown are mean and SD. Probabilities are from Student’s t tests: ∗p < 0.05; ∗∗∗p < 0.001. Three blots were quantified. ATXN2, ataxin-2; BAC, bacterial artificial chromosome; 17-DMAG, 17-dimethylaminoethylamino-17-demethoxygeldanamycin; HSP, heat shock protein.
(§1) Control-treated mice included vehicle alone.
Proteins were prepared, separated on precast polyacrylamide gels (Bio-Rad), transferred to Hybond (Amersham), and detected by enhanced chemiluminescence (Amersham) as previously described ([12], [27]). […]

BAC ATXN2-Q22 mice = assay: Survival / tolerability of treated BAC ATXN2-Q22 mice; assay type: in vivo, mouse
Description: Our study identified 11 compounds known to inhibit HSP90, including one that was identified in our original pilot screen. […] 17-DMAG inhibited transcription of ATXN2 in HEK-293 cells in a dose-dependent manner and reduced the abundance of endogenous and mutant ATXN2 proteins in HEK-293 cells (Figs. 3 and 4). […] Toxicity was evident in our in vivo experiment as well. […] However, like for 17-DMAG, BAC ATXN2-Q22 mice treated with HSP990 had 80% reduced ATXN2 protein abundance in the cerebellum (Fig. 5B).
as §1

[1] = set-up: method as in PMID 25625276; conditions: ref [41]; cited from earlier work
ATXN2 mRNA = assay: Cerebellar ATXN2 mRNA by qPCR in BAC ATXN2-Q22 mice; conditions: 4 mg/kg intraperitoneal, every other day over 10 days
HSP90 = HSP90 target engagement: HSP70 abundance by Western blotting in HEK-293 cells; assay type: cell-based, human
ATXN2-luc [2] = assay: ATXN2-luc luciferase dose-response in H2 cells, 48 h; assay type: cell-based; conditions: Homo sapiens, H2 cells, read-out: IC50 for lowering ATXN2-luc
[3] = test system: endogenous nonmutant ATXN2 protein; assay: Western blotting of endogenous ATXN2 protein in HEK-293 cells; assay type: cell-based, human
Description: (§2) To characterize a bioavailable HSP90 inhibitor, we proceeded by using 17-dimethylaminoethylamino-17-demethoxygeldanamycin (17-DMAG, also known as alvespimycin) for inhibition of ATXN2 in cultured cells instead of the original compounds identified in the screen.
Experiments were repeated three times; values are means and SD.

endogenous ATXN2 = assay: Endogenous ATXN2 mRNA by qPCR in HEK-293 cells; assay type: cell-based; conditions: Homo sapiens, HEK293; HEK-293 cells; read-out: IC50, endogenous ATXN2 transcription by qPCR
mutant ATXN2-Q58 protein = assay: Western blotting in HEK-293 ATXN2-Q58 KI cells; assay type: cell-based, human; conditions: 24 h
Description: as §2
Figure 4 Reduction of ATXN2 expression by 17-DMAG restores autophagy and ER stress phenotypes in ATXN2 mutant cells.A, ATXN2-Q58 HEK-293 cells were treated with 17-DMAG at the indicated doses for 24 h, and then proteins were evaluated by Western blotting. Untreated HEK-293 cells with normal A P-eIF2α TXN2 were also included. […] B, quantification of the blots in A. The n number of blots ranged from 3 to 9. Values are means and SD. Probabilities are from one-way ANOVA and post hoc Bonferroni-corrected t tests: ns; ∗p < 0.05; ∗∗p < 0.01, and ∗∗∗p < 0.001.

[4] = set-up: method as in PMID 24471734, PMID 15791458; conditions: ref [39], [40]; cited from earlier work
ATXN2-luc [5] = assay: ATXN2-luc mRNA by quantitative PCR in H2 cells; assay type: cell-based, human; conditions: 1 and 10 μM, 48 h
Description: treated with the indicated doses of DMAG for 48 hours, then ATXN2-luc mRNA abundance was
determined by quantitative PCR using primers that amplify the luciferase gene.

[6] = 100 mg/kg intraperitoneal, every other day over 16 days

COc1cccc(-c2cc(F)ccc2[C@H]2Cc3nc(N)nc(C)c3C(=O)N2)n1 [HSP990]
Reduced ATXN2 protein abundance in the cerebellum (ATXN2 protein; 4 mg/kg intraperitoneal, every other day over 10 days): 80%
Survival of treated mice (BAC ATXN2-Q22 mice; 4 mg/kg intraperitoneal, every other day over 10 days, n = 4): half of the mice we treated with HSP990 did not survive treatment
Toxicity in clinical trial [1]: dose-limiting neurotoxicity
Reduced ATXN2 mRNA abundance in cerebella (ATXN2 mRNA): 20%
ATXN2 mRNA abundance in cerebella (ATXN2 mRNA; […]): 78.54 ± 3.9%

CO[C@H]1/C=C\C=C(/C)C(=O)NC2=CC(=O)C(NCCN(C)C)=C(C[C@@H](C)C[C@H](OC)[C@H](O)[C@@H](C)/C=C(\C)[C@@H]1OC(N)=O)C2=O [17-DMAG, 17-dimethylaminoethylamino-17-demethoxygeldanamycin]
HSP70 abundance (HSP90): significantly increased HSP70 abundance
Reduction of ATXN2 protein in the cerebellum (ATXN2 protein; [6]): 90%
IC50 (ATXN2-luc [2]): 93 nM
Tolerability in mice (BAC ATXN2-Q22 mice; [6]): well tolerated
Abundance of endogenous nonmutant ATXN2 protein [3]: reduced the abundance of endogenous nonmutant ATXN2 protein
IC50 (endogenous ATXN2): 759 nM
Mutant ATXN2 protein abundance (mutant ATXN2-Q58 protein): significantly reduced mutant ATXN2 protein
Oral bioavailability and blood–brain barrier crossing [4]: orally bioavailable and able to cross the blood–brain barrier
ATXN2-luc transcription (mRNA by qPCR) (ATXN2-luc [5]): reduction of ATXN2-luc transcription
ATXN2-luc transcription (mRNA by qPCR) (ATXN2-luc [5]; listed as DMAG): reduces transcription of ATXN2-luc
